Values joined by “and” are separate entries in the source; they are usually repeats but may differ in a detail not shown here. Equal values may be shown once.
Assays:
Test in all cases: greenhouse pre-emergence herbicidal test
Format in all cases: in vivo
Amaranthus retroflexus = tested on: Amaranthus retroflexus
From the text: (§1) The seeds of the test plants were sown separately for each species. For the pre-emergence treatment, the active ingredients, which had been suspended or emulsified in water, were applied directly after sowing by means of finely distributing nozzles. The containers were irrigated gently to promote germination and growth and subsequently covered with transparent plastic hoods until the plants had rooted. This cover caused uniform germination of the test plants, unless this had been impaired by the active ingredients. […] The test period extended over 2 to 4 weeks. During this time, the plants were tended, and their response to the individual treatments was evaluated. Evaluation was carried out using a scale from 0 to 100. 100 means no emergence of the plants, or complete destruction of at least the aerial moieties, and 0 means no damage, or normal course of growth. A moderate herbicidal activity is given at values of at least 60, a good herbicidal activity is given at values of at least 70, and a very good herbicidal activity is given at values of at least 85. The plants used in the greenhouse experiments were of the following species: [table]

Echinocloa crus-galli = tested on: Echinocloa crus-galli
From the text: as §1

Setaria faberi = tested on: Setaria faberi
From the text: as §1

Abutilon theophrasti = tested on: Abutilon theophrasti
From the text: The culture containers used were plastic flowerpots containing loamy sand with approximately 3.0% of humus as the substrate. The seeds of the test plants were sown separately for each species.
For the pre-emergence treatment, the active ingredients, which had been suspended or emulsified in water, were applied directly after sowing by means of finely distributing nozzles.
The containers were irrigated gently to promote germination and growth and subsequently covered with transparent plastic hoods until the plants had rooted. This cover caused uniform germination of the test plants, unless this had been impaired by the active ingredients.
Depending on the species, the plants were kept at 10-25° C. or 20-35° C., respectively.
The test period extended over 2 to 4 weeks. During this time, the plants were tended, and their response to the individual treatments was evaluated.
Evaluation was carried out using a scale from 0 to 100. 100 means no emergence of the plants, or complete destruction of at least the aerial moieties, and 0 means no damage, or normal course of growth. A moderate herbicidal activity is given at values of at least 60, a good herbicidal activity is given at values of at least 70, and a very good herbicidal activity is given at values of at least 85.
The plants used in the greenhouse experiments were of the following species: […]

| SMILES | herbicidal activity (Amaranthus retroflexus; 62 g/ha) | herbicidal activity (Echinocloa crus-galli; 62 g/ha) | herbicidal activity (Setaria faberi; 62 g/ha) | other results |
| --- | --- | --- | --- | --- |
| CC(F)c1nc(N)nc(Nc2c(Cl)cccc2OC(F)F)n1 (racemic) [Example 95] | 100% | 100% | 100% | herbicidal activity (Abutilon theophrasti; 62 g/ha): 100% |
| COc1c(Br)cc(Cl)c(C)c1Nc1nc(N)nc(C(C)F)n1 (racemic) [Example 96] |  | 70% | 75% |  |
| COc1c(Br)cc(Cl)c(C)c1Nc1nc(N)nc(C(C)(F)CBr)n1 (racemic) [Example 99] | 100% |  | 100% | herbicidal activity (Abutilon theophrasti; 62 g/ha): 100% |
| Cc1c(Br)cc(F)c(OCc2ccccc2)c1Nc1nc(N)nc(C(C)(C)F)n1 [Example 6] |  |  |  | herbicidal activity (Echinocloa crus-galli; 125 g/ha): 100%; herbicidal activity (Echinocloa crus-galli; 250 g/ha): 85%; herbicidal activity (Setaria faberi; 125 g/ha): 100%; herbicidal activity (Setaria faberi; 250 g/ha): 100%; herbicidal activity (Abutilon theophrasti; 125 g/ha): 100%; herbicidal activity (Abutilon theophrasti; 250 g/ha): 100% |
| COc1c(F)ccc(C)c1Nc1nc(N)nc(C(C)(C)F)n1 [Example 16] | 100% | 100% |  | herbicidal activity (Amaranthus retroflexus; 250 g/ha): 100%; herbicidal activity (Echinocloa crus-galli; 250 g/ha): 100%; herbicidal activity (Abutilon theophrasti; 62 g/ha): 100%; herbicidal activity (Abutilon theophrasti; 250 g/ha): 100% |
| COc1c(C)ccc(C)c1Nc1nc(N)nc(C(C)(C)OC)n1 [Example 17] |  |  |  | herbicidal activity (Amaranthus retroflexus; 250 g/ha): 100%; herbicidal activity (Echinocloa crus-galli; 250 g/ha): 100%; herbicidal activity (Abutilon theophrasti; 250 g/ha): 100% |
| COc1c(C)ccc(C)c1Nc1nc(N)nc(C(C)F)n1 (centres unmarked) [Example 18] |  |  |  | herbicidal activity (Amaranthus retroflexus; 62.5 g/ha): 100%; herbicidal activity (Amaranthus retroflexus; 250 g/ha): 100%; herbicidal activity (Echinocloa crus-galli; 62.5 g/ha): 100%; herbicidal activity (Echinocloa crus-galli; 250 g/ha): 100%; herbicidal activity (Abutilon theophrasti; 62.5 g/ha): 100%; herbicidal activity (Abutilon theophrasti; 250 g/ha): 100% |
| C#CCOc1c(Br)cc(F)c(C)c1Nc1nc(N)nc(C(C)(C)F)n1 [Example 22] | 100% | 100% | 100% | herbicidal activity (Amaranthus retroflexus; 62.5 g/ha): 85%; herbicidal activity (Echinocloa crus-galli; 62.5 g/ha): 85%; herbicidal activity (Setaria faberi; 62.5 g/ha): 100% |
| CCOc1c(Br)cc(F)c(C)c1Nc1nc(N)nc(C(C)(C)F)n1 [Example 23] | 100% | 100% | 100% | herbicidal activity (Amaranthus retroflexus; 62.5 g/ha): 100%; herbicidal activity (Echinocloa crus-galli; 62.5 g/ha): 100%; herbicidal activity (Setaria faberi; 62.5 g/ha): 100% |
| CC#CCOc1c(F)cc(F)c(Cl)c1Nc1nc(N)nc(C(C)(C)F)n1 [Example 25] | 100% | 100% | 100% | herbicidal activity (Amaranthus retroflexus; 250 g/ha): 100%; herbicidal activity (Echinocloa crus-galli; 250 g/ha): 100%; herbicidal activity (Setaria faberi; 250 g/ha): 100% |
| CCC#CCOc1c(F)cc(F)c(Cl)c1Nc1nc(N)nc(C(C)(C)F)n1 [Example 26] | 100% | 100% | 100% | herbicidal activity (Amaranthus retroflexus; 250 g/ha): 100%; herbicidal activity (Echinocloa crus-galli; 250 g/ha): 100%; herbicidal activity (Setaria faberi; 250 g/ha): 100% |
| CC(C)(F)c1nc(N)nc(Nc2c(Cl)c(F)cc(F)c2OCC#CC2CC2)n1 [Example 27] | 100% | 100% | 100% | herbicidal activity (Amaranthus retroflexus; 31 g/ha): 100%; herbicidal activity (Setaria faberi; 31 g/ha): 100% |
| C#CCOc1c(F)cc(F)c(Cl)c1Nc1nc(N)nc(C(C)(C)F)n1 [Example 28] | 100% | 100% | 100% | herbicidal activity (Amaranthus retroflexus; 62.5 g/ha): 100%; herbicidal activity (Echinocloa crus-galli; 62.5 g/ha): 100%; herbicidal activity (Setaria faberi; 62.5 g/ha): 100% |
| COc1c(Br)cc(F)c(Cl)c1Nc1nc(N)nc(C(C)(C)F)n1 [Example 29] | 100% |  | 100% | herbicidal activity (Amaranthus retroflexus; 31 g/ha): 100%; herbicidal activity (Setaria faberi; 31 g/ha): 100%; herbicidal activity (Abutilon theophrasti; 31 g/ha): 100%; herbicidal activity (Abutilon theophrasti; 62 g/ha): 100% |
| COc1c(Cl)cc(Cl)c(C)c1Nc1nc(N)nc(C(C)(C)F)n1 [Example 34] |  |  |  | herbicidal activity (Amaranthus retroflexus; 62.5 g/ha): 100%; herbicidal activity (Echinocloa crus-galli; 62.5 g/ha): 100%; herbicidal activity (Abutilon theophrasti; 62.5 g/ha): 100% |
| COc1c(Br)cc(F)c(Cl)c1Nc1nc(N)nc(C2(F)CC2)n1 [Example 42] |  |  |  | herbicidal activity (Amaranthus retroflexus; 31 g/ha): 100%; herbicidal activity (Echinocloa crus-galli; 31 g/ha): 100%; herbicidal activity (Setaria faberi; 31 g/ha): 100% |
| COc1c(F)ccc(Cl)c1Nc1nc(N)nc(C(C)(C)F)n1 [Example 49] | 100% | 100% |  | herbicidal activity (Amaranthus retroflexus; 62.5 g/ha): 100%; herbicidal activity (Echinocloa crus-galli; 62.5 g/ha): 100%; herbicidal activity (Abutilon theophrasti; 62 g/ha): 100%; herbicidal activity (Abutilon theophrasti; 62.5 g/ha): 100% |
| C#CCOc1c(F)cc(C)c(Cl)c1Nc1nc(N)nc(C(C)(C)F)n1 [Example 56] |  | 100% | 100% | herbicidal activity (Echinocloa crus-galli; 62.5 g/ha): 90%; herbicidal activity (Setaria faberi; 62.5 g/ha): 100%; herbicidal activity (Abutilon theophrasti; 62 g/ha): 100%; herbicidal activity (Abutilon theophrasti; 62.5 g/ha): 90% |
| CC#CCOc1c(Cl)cc(C)c(Cl)c1Nc1nc(N)nc(C(C)(C)F)n1 [Example 65] |  | 100% | 100% | herbicidal activity (Abutilon theophrasti; 62 g/ha): 100% |
| COc1c(Cl)ccc(Cl)c1Nc1nc(N)nc(C(C)(F)F)n1 [Example 72] | 100% | 100% | 80% and 100% |  |

| SMILES | herbicidal activity (Amaranthus retroflexus; 62 g/ha) | herbicidal activity (Echinocloa crus-galli; 62 g/ha) | herbicidal activity (Setaria faberi; 62 g/ha) | other results |
| --- | --- | --- | --- | --- |
| COc1c(Cl)cc(F)c(C)c1Nc1nc(N)nc(C2(F)CCCC2)n1 [Example 73] | 100% | 100% | 100% |  |
| COc1c(Br)cc(F)c(C)c1Nc1nc(N)nc(C(C)F)n1 (centres unmarked) [Example 74] | 100% | 100% | 100% |  |
| COc1c(Br)cc(F)c(C)c1Nc1nc(N)nc(C(C)(F)CCl)n1 (centres unmarked) [Example 75] | 100% | 100% | 100% |  |
| COc1c(Br)cc(F)c(C)c1Nc1nc(N)nc(C(C)(F)CBr)n1 (centres unmarked) [Example 76] | 100% | 100% | 100% |  |
| COc1c(Br)cc(F)c(C)c1Nc1nc(N)nc(C(C)(F)F)n1 [Example 77] | 100% | 100% | 100% |  |
| COc1c(Br)cc(F)c(C)c1Nc1nc(N)nc(C2(F)CCCC2)n1 [Example 78] | 100% | 100% | 100% |  |
| CCC(C)(F)c1nc(N)nc(Nc2c(C)c(F)cc(Br)c2OC)n1 (centres unmarked) [Example 79] | 100% |  | 100% | herbicidal activity (Abutilon theophrasti; 62 g/ha): 100% |
| COc1c(Br)cc(F)c(C)c1Nc1nc(N)nc(C(C)(C)F)n1 [Example 80] | 100% | 100% | 100% |  |
| CCC(C)(F)c1nc(N)nc(Nc2c(C)c(F)cc(Cl)c2OC)n1 (centres unmarked) [Example 81] |  | 100% | 100% | herbicidal activity (Abutilon theophrasti; 62 g/ha): 100% |
| CC#CCOc1c(Br)cc(C)c(Cl)c1Nc1nc(N)nc(C(C)(C)F)n1 [Example 82] | 100% | 100% | 100% |  |
| COc1c(Br)cc(C)c(Cl)c1Nc1nc(N)nc(C(C)(C)F)n1 [Example 83] | 100% | 100% | 100% |  |
| COc1c(F)ccc(Cl)c1Nc1nc(N)nc(C(C)(F)F)n1 [Example 85] |  | 100% | 98% | herbicidal activity (Abutilon theophrasti; 62 g/ha): 85% |
| COc1c(F)ccc(Cl)c1Nc1nc(N)nc(C(C)(F)CBr)n1 (centres unmarked) [Example 86] | 100% | 100% | 100% |  |
| COc1c(F)ccc(Cl)c1Nc1nc(N)nc(C(C)(C)OC)n1 [Example 87] | 100% | 100% | 100% |  |
| CC#CCOc1c(F)ccc(Cl)c1Nc1nc(N)nc(C(C)(F)F)n1 [Example 88] | 100% | 100% | 100% |  |
| CC#CCOc1c(F)ccc(Cl)c1Nc1nc(N)nc(C(F)C(C)C)n1 (centres unmarked) [Example 89] | 100% | 100% | 100% |  |
| CC#CCOc1c(F)ccc(Cl)c1Nc1nc(N)nc(C(C)(C)OC)n1 [Example 90] | 100% | 100% | 100% |  |
| CC#CCOc1c(F)ccc(Cl)c1Nc1nc(N)nc(C(C)(F)CBr)n1 (centres unmarked) [Example 91] | 100% | 100% | 100% |  |
| Nc1nc(Nc2c(Cl)cccc2OC(F)F)nc(C2(F)CCCC2)n1 [Example 94] | 100% | 100% | 100% |  |
